The values below come from US20230060425A1, “FUSED BICYCLIC HETEROCYCLE DERIVATIVES AS PESTICIDES” (Bayer Aktiengesellschaft, priority 2019, published 2023).

Holding throughout (format): in vivo
Assay [1] relates to Boophilus microplus. In words: Boophilus microplus injection test. Particulars: application rate 20 μg/animal, after 7 days, laying of fertile eggs. The procedure:
Boophilus microplus—Injection Test
(§1) Solvent: Dimethyl sulfoxide
To produce a suitable active compound formulation, 10 mg of active compound are mixed with 0.5 ml of solvent and the concentrate is diluted to the desired concentration with solvent.
1 μl of the active compound solution is injected into the abdomen of 5 engorged adult female cattle ticks (Boophilus microplus). The animals are transferred into dishes and kept in a climate-controlled room.
Efficacy is assessed after 7 days by laying of fertile eggs. Eggs which are not visibly fertile are stored in a climate-controlled cabinet until the larvae hatch after about 42 days. An efficacy of 100% means that none of the ticks has laid any fertile eggs; 0% means that all the eggs are fertile.

The test system of assay [2] is Ctenocephalides felis. In words: Ctenocephalides felis oral test. The settings on record: 48 h, application rate 100 ppm, in citrated cattle blood, after 2 days, read-out: efficacy (kill in %). In a few lines: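 Adult unfed cat fleas (~20 per chamber) fed through parafilm membrane on citrated cattle blood containing compound (DMSO formulation diluted in blood to test concentration). Kill (%) scored after 2 days; 100% = all fleas dead, 0% = none.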

The test system of assay [3] is Lucilia cuprina. In words: Lucilia cuprina test. The settings on record: application rate 100 ppm; L1 larvae; after 2 days. The procedure:
as §1
To produce a suitable active compound formulation, 10 mg of active compound are mixed with 0.5 ml of dimethyl sulfoxide, and the concentrate is diluted with water to the desired concentration.
About 20 L1 larvae of the Australian sheep blowfly (Lucilia cuprina) are transferred into a test vessel containing minced horsemeat and the active compound formulation of the desired concentration.
After 2 days, the kill in % is determined. 100% means that all the larvae have been killed; 0% means that no larvae have been killed.

In assay [4] the test system is Myzus persicae. In words: Myzus persicae oral test. Particulars: 120 h, application rate 4 ppm, after 5 days, read-out: efficacy. Summed up:
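Aphid feeding test: compound dissolved in acetone, diluted with water and mixed with IPL41 insect medium plus sugar, offered through parafilm to a mixed population of green peach aphids. Mortality scored after 5 days as % efficacy (100% = all aphids dead, 0% = none dead).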

In assay [5] the test system is Myzus persicae. As to the kind of experiment: Myzus persicae spray test. The settings on record: foliar, 120 h, application rate 100 g/ha, Chinese cabbage leaf discs, after 5 days, read-out: efficacy. In a few lines:
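Chinese cabbage leaf discs infested with all stages of Myzus persicae were sprayed with compound in acetone/DMF, diluted in water containing 1000 ppm emulsifier. Efficacy in % assessed after 5 days: 100% all aphids killed, 0% none killed.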

In assay [6] the test system is Phaedon cochleariae. In words: Phaedon cochleariae spray test. Particulars: foliar, 168 h, application rate 100 g/ha, Chinese cabbage leaf discs, after 7 days, read-out: efficacy. In a few lines:
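Chinese cabbage leaf discs sprayed with compound formulated in acetone/DMF and emulsifier-containing water, then infested with mustard beetle larvae after drying. Efficacy read after 7 days as % larvae killed.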

For assay [7], the system named is Spodoptera frugiperda. In words: Spodoptera frugiperda spray test. The settings on record: foliar, 168 h, application rate 100 g/ha, maize leaf discs, after 7 days, read-out: efficacy. As for the experimental part:
Spodoptera frugiperda—Spray Test
(§2) Solvent: • 78.0 parts by weight of acetone • 1.5 parts by weight of dimethylformamide
(§3) Emulsifier: alkylaryl polyglycol ether
To produce further test concentrations, the formulation is diluted with emulsifier-containing water.
After 7 days, the efficacy in % is determined. 100% means that all the caterpillars have been killed; 0% means that no caterpillar has been killed.

Assay [8] has as its system Myzus persicae. As to the kind of experiment: Myzus persicae spray test (MYZUPE), comparative. The settings on record: 120 h, 5 dat, read-out: % Efficacy. As for the experimental part:
Myzus persicae—Spray Test (MYZUPE)
as §2, §3
(§4) To produce a suitable active compound preparation, 1 part by weight of active compound is dissolved using the stated parts by weight of solvent and made up with water containing an emulsifier concentration of 1000 ppm until the desired concentration is attained. To produce further test concentrations, the formulation is diluted with emulsifier-containing water.
Discs of Chinese cabbage leaves (Brassica pekinensis) infested by all stages of the green peach aphid (Myzus persicae) are sprayed with an active compound preparation of the desired concentration.
(§5) After the desired period of time, the efficacy in % is determined. 100% means that all the aphids have been killed; 0% means that no aphids have been killed.

Assay [9] relates to Spodoptera frugiperda. As to the kind of experiment: Spodoptera frugiperda spray test (SPODFR), comparative. Particulars: 168 h, 0.8 g of ai/ha, 7 dat, read-out: % Efficacy. The procedure:
Spodoptera frugiperda—Spray Test (SPODFR)
as §2, §3, §4
Leaf discs of maize (Zea mays) are sprayed with an active compound formulation of the desired concentration and, after drying, populated with caterpillars of the armyworm (Spodoptera frugiperda).
After the desired period of time, the efficacy in % is determined. 100% means that all the caterpillars have been killed; 0% means that no caterpillar has been killed.

Assay [10] has as its system Myzus persicae. As to the kind of experiment: Myzus persicae spray test on bell pepper plants (MYZUPE S). The settings on record: 144 h, 6 dat, read-out: % Efficacy. As for the experimental part:
Myzus persicae—Spray Test (MYZUPE S)
(§6) Solvent: 14 parts by weight of dimethylformamide
as §3
(§7) To produce a suitable active compound preparation, 1 part by weight of active compound is dissolved using the stated parts by weight of solvent and made up with water containing an emulsifier concentration of 1000 ppm until the desired concentration is attained. To produce further test concentrations, the formulation is diluted with emulsifier-containing water. If the addition of ammonium salts or/and penetrants is required, these are each added in a concentration of 1000 ppm to the formulation solution.
Bell pepper plants (Capsicum annuum) severely infested with the green peach aphid (Myzus persicae) are treated by spraying with the active compound formulation in the desired concentration.
After the desired time, the kill in % is determined. 100% means that all the animals have been killed; 0% means that no animals have been killed.

The test system of assay [11] is Myzus persicae. In words: Myzus persicae drench test (MYZUPE D). Particulars: soil, 240 h, 10 dat, read-out: % Efficacy. As for the experimental part: Myzus persicae—Drench Test (MYZUPE D)
Solvent: 7 parts by weight of dimethylformamide
Emulsifier: 2 part by weight of alkylaryl polyglycol ether
To produce a suitable active compound preparation, 1 part by weight of active compound is mixed with the specified amounts of solvent and emulsifier, and the concentrate is diluted with water to the desired concentration, it being necessary to include the volume of soil which is drenched in the calculation. It should be ensured that a concentration of 40 ppm of emulsifier in the soil is not exceeded. To produce further test concentrations, water is used for dilution.
Savoy cabbage (Brassica oleracea) in pots with soil and infested by all stages of the green peach aphid (Myzus persicae) is watered with an active compound preparation of the desired concentration.
as §5

In assay [12] the test system is Aphis gossypii. In words: Aphis gossypii spray test (APHIGO S). Particulars: 144 h, 6 dat, read-out: % Efficacy. As for the experimental part: Aphis gossypii—Spray Test (APHIGO S)
as §6, §3, §7
Cotton plants (Gossypium hirsutum) heavily infested by the cotton aphid (Aphis gossypii) are sprayed with an active compound formulation of the desired concentration.
After the desired time, the kill in % is determined. 100% means that all the aphids have been killed; 0% means that no aphids have been killed.

The subject of assay [13] is Spodoptera frugiperda. As to the kind of experiment: Spodoptera frugiperda test on maize plants (SPODFR S). Particulars: 6 dai, read-out: % Efficacy. As for the experimental part: Spodoptera frugiperda Test (SPODFR S)
as §6
(§8) Emulsifier: 2 parts by weight of alkylaryl polyglycol ether
(§9) To produce a suitable active compound formulation, 1 part by weight of active compound is dissolved with the stated parts by weight of solvent and emulsifier and made up to the desired concentration with water. To produce further test concentrations, water is used for dilution. In the event that addition of ammonium salts or/and penetrants (rapeseed oil methyl ester) is required, these are each pipetted in at a concentration of 1000 ppm after the finished formulation solution has been diluted.
Maize plants (Zea mays) are sprayed with an active compound formulation of the desired concentration and, in each case after 5, 12 and 19 days, populated with 5 caterpillars (L2) of the fall armyworm (Spodoptera frugiperda).
(§10) The kill is determined 6 days after the infection. 100% means that all the caterpillars have been killed and 0% means that none of the caterpillars have been killed.

Assay [14] deals with Heliothis armigera. In words: Heliothis armigera test (HELIAR S). The settings on record: Helicoverpa armigera, 6 dai, read-out: % Efficacy. The procedure:
Heliothis armigera Test (HELIAR S)
as §6, §8, §9
Cotton plants (Gossypium hirsutum) are sprayed with an active compound formulation of the desired concentration and, in each case after 12 and 19 days, populated with 5 caterpillars (L2) of the cotton bollworm (Heliothis armigera).
as §10

In assay [15] the test system is Plutella xylostella. As to the kind of experiment: Plutella xylostella test (PLUTMA S). The settings on record: 456 h, infection 19 dat, 6 dai, read-out: % Efficacy. The procedure:
Plutella xylostella Test (PLUTMA S)
as §6, §8, §9
Cabbage plants (Brassica oleracea var. sabauda) are sprayed with an active compound formulation of the desired concentration and, after 19 days, populated with 10 caterpillars (L2 larvae) of the diamond back moth (Plutella xylostella).
as §10

Assay [16] concerns Phaedon cochleariae. In words: Phaedon cochleariae test on cabbage plants (PHAECO S). Particulars: 6 dai, read-out: % Efficacy. The procedure: Phaedon cochleariae Test (PHAECO S)
as §6, §8, §9
Cabbage plants (Brassica oleracea var. sabauda) are sprayed with an active compound formulation of the desired concentration and populated with 10 L2 larvae of the mustard beetle (Phaedon cochleariae).
After the desired time, the kill in % is determined. 100% means that all the larvae have been killed and 0% means that none of the larvae have been killed.

Read-outs that look alike come from different tables or passages of the source.

In turn, `CCS(=O)(=O)c1c(-c2nc3cc(C(F)(F)F)cnc3n2C)ncc2cc(Cl)ccc12` [Example I-010] yielded an efficacy in [1] of 80%. Also, in [2], the pest or weed control at 100 ppm came to 100%. The “efficacy (kill in %)” value in [3] came to 100%. In assay [4], the pest or weed control at 4 ppm was 100%. The pest or weed control at 100 g/ha in assay [5], in assay [6] and in [7] was 100% throughout.
As to `CCS(=O)(=O)c1c(-c2nc3cc(C(F)(F)F)cnc3n2C)ncc2cc(C(F)(F)F)ccc12` [Example I-51, reference compound], the Emax at 4 g/ha in assay [8] (4 g of ai/ha) came to 0%. Also, the Emax at 20 g/ha in assay [8] (20 g of ai/ha) is 0%. Moreover, the Emax at 0.8 g/ha in assay [9] was 67%. Also, the Emax at 0.8 ppm in assay [10] (0.8 ppm) was determined as 0%; in assay [13] (288 h, infection 12 dat), 80%; in [13] (456 h, infection 19 dat), 60%; in assay [16] (288 h, 0.8 ppm, infection 12 dat) it was 40%. Besides, the Emax at 4 ppm in assay [10] (4 ppm) was 70%; in [11] it was 0%; in assay [12] it was 20%. Also, the Emax at 0.16 ppm was 20% in [13] (120 h, infection 5 dat); 10% in assay [13] (288 h, infection 12 dat); 30% in [13] (456 h, infection 19 dat); 40% in assay [14] (288 h, infection 12 dat); 20% in assay [14] (456 h, infection 19 dat); 50% in assay [15]. The Emax at 0.16 ppm in assay [16] (120 h, infection 5 dat) came out at 10%; in [16] (288 h, infection 12 dat), 0%.
